Reference: paper PMC11013038, “Design, Synthesis, and Evaluation of B-(Trifluoromethyl)phenyl Phosphine–Borane Derivatives as Novel Progesterone Receptor Antagonists” (Molecules, 2024)

What was measured:
[1] = LogP (1-octanol/water partition coefficient) determined using HPLC; assay type: physicochemical; settings: HPLC (OECD guideline), C18 column, methanol–water 75% (v/v), 40 °C, mean of triplicate
Protocol: Hydrophobicity is a key determinant of the activity and pharmacokinetics of biologically active compounds, and the octanol–water partition coefficient (P) and logarithm value (LogP) are widely used hydrophobicity parameters. The LogP values of the synthesized compounds were determined using HPLC [45, 46]. Table 1 summarizes the experimentally determined LogP values and calculated values. […] From the viewpoint of the phosphine structure, an increase in the number of carbon atoms increased hydrophobicity in a predictable manner.
The 1-octanol/water partition coefficient P was determined using HPLC based on the OECD Guideline for Testing Chemicals. A COSMOSIL Packed Column 5C18-MS-II (5 μm, 150 mm × 4.6 mm id, Nacalai Tesque, Inc., Kyoto, Japan) was fitted on an HPLC instrument (Multiwavelength Detector, MD-2010 Plus. JASCO, Tokyo, Japan) equipped with a pump (PU-2080, JASCO) and an oven (SSC-2120, Senshu Scientific Co., Ltd., Tokyo, Japan). The injection volume was 20 µL; the mobile phase was methanol–water 75% (v/v); and the flow rate was 1.0 mL/min in all cases. Compounds were detected by measuring the UV absorption at 240 nm. The temperature of the column was kept at 40.0 (± 0.1) °C during the measurement. The measurement was performed in triplicate, and the mean value was calculated. The dead time t0 was measured with thiourea as the unretained compound, and the capacity factor k was calculated using the equation logk = log (tr − t0/t0), where tr represents the retention time of the compound. A calibration graph was determined experimentally using reference compounds (4-methylphenol, 4-chlorophenol, 4-phenylphenol, diphenylether, fluoranthene, and dichlorodiphenyltrichloroethane) with known logP values. The LogP values of phosphine–boranes were calculated based on a calibration graph (LogP = 2.6269 logkw + 3.059, R^2 = 0.9915).

[2] = biological target: T1, PR ligand-binding domain (LBD) (Homo sapiens, UniProt P06401); assay: PR LBD competitive binding assay (fluorescence polarization, PolarScreen kit); settings: fluorescence polarization competition, 100 nM to 32 μM, Figure 5
T1 construct: purchased Invitrogen A15905
T1 sequence (P06401 679-913 limits assumed): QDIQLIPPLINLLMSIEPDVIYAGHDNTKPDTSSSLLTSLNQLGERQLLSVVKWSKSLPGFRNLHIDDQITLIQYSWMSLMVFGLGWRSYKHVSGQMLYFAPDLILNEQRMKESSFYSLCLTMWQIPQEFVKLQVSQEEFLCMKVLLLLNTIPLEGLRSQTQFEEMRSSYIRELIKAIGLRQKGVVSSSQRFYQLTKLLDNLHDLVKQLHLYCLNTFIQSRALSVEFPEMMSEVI
Protocol: The PR agonistic and antagonistic activities of the synthesized phosphine–borane derivatives were evaluated using an alkaline phosphatase assay with the T47D human breast cancer cell line. […] The basal alkaline phosphatase activity was also not affected by the tested compounds alone. […] The PR antagonistic activities of the compounds were assessed in the presence of 1 nM of P4 (5). We also calculated the molecular volume of each compound to investigate the structure–activity relationship (SAR). Table 2 summarizes the PR antagonistic activity and calculated volumes of the synthesized compounds. […] We investigated the binding affinity of the compounds toward the PR ligand-binding domain (LBD) using a fluorescence polarization assay system. […] We also investigated the activity of compounds 28 and 34 toward the androgen receptor (AR) by means of cell-proliferation promoting/inhibitory activity toward androgen-dependent SC-3 cells. […].
PR binding affinity was assessed using a PolarScreen Progesterone Receptor Competitor Assay Kit, Green (Invitrogen, Waltham, MA, USA, A15905) based on the manufacturer’s instruction. […] The fluorescence polarization value (mP) was measured at 485 nm/535 nm (excitation/emission) on a DTX 880 Multimode Detector (Beckman Coulter).

androgen receptor (AR) [3] = biological target: T2, androgen receptor (AR) (Mus musculus, UniProt P19091); assay: SC-3 cell proliferation assay, AR agonistic activity (compound alone); assay type: cell-based, murine; settings: for EC50: SC-3 cells, induction of cell proliferation by single treatment of the compound, 0.01 μM to 10 μM, read-out: EC50 (agonist); for effect on SC-3 cell growth in the absence of dihydrotestosterone (AR agonistic activity): androgen-dependent SC-3 cells
T2 construct: SC-3 cells were cultured in MEMα (Fujifilm Wako Co.) supplemented with 2 %; endogenous in cells; host or cells: SC-3
T2 sequence (P19091 1-899): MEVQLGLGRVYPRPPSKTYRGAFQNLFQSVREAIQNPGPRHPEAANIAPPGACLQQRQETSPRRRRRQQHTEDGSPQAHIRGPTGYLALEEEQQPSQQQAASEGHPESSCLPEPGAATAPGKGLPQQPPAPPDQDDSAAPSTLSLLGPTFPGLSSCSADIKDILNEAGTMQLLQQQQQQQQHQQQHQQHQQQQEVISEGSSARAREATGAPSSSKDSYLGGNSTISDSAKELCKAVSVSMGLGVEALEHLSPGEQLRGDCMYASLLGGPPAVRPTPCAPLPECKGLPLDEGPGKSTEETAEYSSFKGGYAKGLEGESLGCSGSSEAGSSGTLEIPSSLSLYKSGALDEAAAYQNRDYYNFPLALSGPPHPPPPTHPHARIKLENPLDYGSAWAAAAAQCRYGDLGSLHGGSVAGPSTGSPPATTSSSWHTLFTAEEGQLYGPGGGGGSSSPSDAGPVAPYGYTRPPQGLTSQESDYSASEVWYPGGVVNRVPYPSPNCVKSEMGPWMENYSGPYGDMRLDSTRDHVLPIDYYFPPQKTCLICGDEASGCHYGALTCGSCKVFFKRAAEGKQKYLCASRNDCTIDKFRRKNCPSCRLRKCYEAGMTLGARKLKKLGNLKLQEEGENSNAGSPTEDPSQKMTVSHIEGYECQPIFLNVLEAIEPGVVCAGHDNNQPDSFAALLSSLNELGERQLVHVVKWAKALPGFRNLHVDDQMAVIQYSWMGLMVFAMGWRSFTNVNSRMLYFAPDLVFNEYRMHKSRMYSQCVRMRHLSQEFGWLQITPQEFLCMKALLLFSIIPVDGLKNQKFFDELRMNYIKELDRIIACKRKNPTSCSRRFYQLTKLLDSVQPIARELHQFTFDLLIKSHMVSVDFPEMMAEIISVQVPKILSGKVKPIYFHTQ

androgen receptor (AR) [4] = biological target: T2, androgen receptor (AR); assay: SC-3 cell proliferation assay, AR antagonistic activity (1 nM DHT-promoted proliferation); assay type: cell-based, murine; settings: for effect on SC-3 cell growth in the presence of dihydrotestosterone (AR antagonistic activity): androgen-dependent SC-3 cells; for IC50: read-out: IC50 (antagonist)

| Compound | chromatographic logP [1] | binding affinity toward PR LBD (in words) [2] | EC50 (androgen receptor (AR) [3]) [µM] | effect on SC-3 cell growth in the absence of dihydrotestosterone (AR agonistic activity) (androgen receptor (AR) [3]) | effect on SC-3 cell growth in the presence of dihydrotestosterone (AR antagonistic activity) (androgen receptor (AR) [4]) | IC50 (androgen receptor (AR) [4]) [µM] |
| --- | --- | --- | --- | --- | --- | --- |
| C[P+](C)(C)[BH2-]c1ccc(C(F)(F)F)cc1 [Compound 28, B-4-(Trifluoromethyl)phenyl Trimethylphosphine–Borane] | 3.65 | did not show the affinity | > 10 | did not affect cell growth | did not affect cell growth | > 10 |
| FC(F)(F)c1ccc([BH2-][P+](C2CC2)(C2CC2)C2CC2)cc1 [Compound 34, B-4-(Trifluoromethyl)phenyl Tricyclopropylphosphine–Borane] | 5.32 | exhibited significant affinity toward PR LBD | > 10 | did not affect cell growth | did not affect cell growth | > 10 |
